{
  "source": "paper PMC11483378",
  "about": "“Triazole-Based Thiamine Analogues as Inhibitors of Thiamine Pyrophosphate-Dependent Enzymes: 1,3-Dicarboxylate for Metal Binding” (ACS Omega, 2024)",
  "key": {"[1]": {"target": "T1, Porcine PDH E1 (Sus scrofa, UniProt P29804)", "T1 sequence (P29804 31-390)": "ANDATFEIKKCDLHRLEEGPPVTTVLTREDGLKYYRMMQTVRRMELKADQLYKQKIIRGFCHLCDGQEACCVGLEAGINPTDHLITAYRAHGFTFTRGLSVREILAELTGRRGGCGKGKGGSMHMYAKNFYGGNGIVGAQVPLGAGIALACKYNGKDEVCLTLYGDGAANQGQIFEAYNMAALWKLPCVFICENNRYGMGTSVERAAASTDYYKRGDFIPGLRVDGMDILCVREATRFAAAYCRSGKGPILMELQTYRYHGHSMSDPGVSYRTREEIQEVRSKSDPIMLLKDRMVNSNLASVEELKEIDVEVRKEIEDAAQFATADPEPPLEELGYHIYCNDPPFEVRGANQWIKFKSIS", "test": "Porcine PDH E1 inhibitory activity assay (DCPIP reduction)", "format": "biochemical", "details": "for % Inhibition (5:1): [Compound] = 250 μM, [TPP] = 50 μM; for inhibition at 250 µM: [Compound] = [TPP] = 250 μM, read-out: % Inhibition (1:1); for vs TPP: affinity of the compound relative to that of TPP (= [TPP]/IC50) / IC50: [TPP] = 60 µM; for IC50: read-out: IC50 (μM ± SEM); for Ki: calculated from KM(TPP) 0.05 µM using [TPP]/IC50 = KM(TPP)/KI", "procedure": "Porcine PDH E1 was purchased from Sigma. Porcine PDH E1 activity was determined by monitoring 2,6-dichlorophenolindophenol (DCPIP) reduction at 600 nm using a microplate reader (CLARIOstar) and conducted as described[5] with some modifications. […] The reaction buffer (50 mM KH2PO4 and 1 mM MgCl2, pH 7) contained thiamine pyrophosphate (TPP) at specified concentrations, 0.25 mM DCPIP, and 2 mg/mL porcine PDH E1. The reaction mixture was preincubated at 37 °C with the inhibitor for 30 min, and then the reaction was initiated by adding pyruvate to a final concentration of 50 mM. To determine the half-maximal inhibitory concentration (IC50), the TPP concentration was set at 60 μM with varying inhibitor concentrations. Specific activity was calculated using the molar extinction coefficient of DCPIP, 21 mM^–1 cm^–1.[28] The IC50 values were calculated from nonlinear regression curve fitting using GraphPad Prism.\nPorcine PDH E1 inhibitory activity assay. Porcine PDH E1 was purchased from Sigma. Porcine PDH E1 activity was determined by monitoring 2,6-dichlorophenolindophenol (DCPIP) reduction at 600 nm using a microplate reader (CLARIOstar) and conducted as described3 with some modifications. The […]\nbuffer (50 mM KH2PO4 and 1 mM MgCl2, pH 7) contained thiamine pyrophosphate (TPP) at specified concentrations, 0.25 mM 2,6-dichlorophenolindophenol (DCPIP), and 2 mg/mL porcine PDH E1. The reaction mixture was preincubated at 37 °C with the inhibitor for 30 min, then reaction was initiated by adding pyruvate to a final concentration of 50 mM. To determine the half-maximal inhibitory concentration (IC50), TPP concentration was set at 60 µM with varying inhibitor concentrations. […]\nvalues were calculated from non-linear regression curve fitting using GraphPad Prism. […]"}, "[2]": {"tested_on": "TPP-dependent enzymes", "test": "Inhibition / relative affinity across the TPP-dependent enzymes (PDH E1, PDC, PO, OGDH E1)", "format": "biochemical", "details": "comparison of relative affinities", "excerpt": "The different biochemical reactions catalyzed, preferred substrates (Table S1), and primary sequences reflect the structurally and functionally diverse members of the family. […] However, as the inhibitors are TPP-competitive, what really matters is the affinity of each inhibitor relative to the affinity of TPP for that particular enzyme."}, "[3]": {"tested_on": "porcine liver esterase", "test": "Esterase treatment with UPLC-HRMS analysis", "format": "in vitro ADME", "procedure": "Esters 13b and 15b were subjected to esterase treatment (porcine liver esterase) at 37 °C and pH 7.4 for 2 h, and then the reaction mixtures were analyzed using UPLC-HRMS (Figure 4).[24] The molecular mass of the new products formed was determined by MS and confirmed that they were the expected carboxylic acids. […] The second hydrolysis is presumably slower because the substrate 17 is anionic, whereas for the first hydrolysis, the substrate 13b is neutral.[19],[25],[26] When 13b enters a cell through passive diffusion, the intracellular esterases will begin to hydrolyze the ester groups to give first 17 and then 14b. Since both 17 and 14b are negatively charged under physiological conditions, they will be unable to diffuse back out of the cell and so should accumulate there.[27] Diester 13b is more hydrophobic than triazole hydroxamate 4 (c Log D: 0.8 vs −0.5) and so should diffuse into cells more readily. […] Thus, we anticipate that 13b will be as useful as 4 in probing the role of vitamin B1 in cells.\nFigure 4 UPLC-HRMS analysis of the esterase treatment. […] Compound (retention time/min): diester 13b (1.30), dicarboxylate 14b (0.51), monoester 15b (0.99), monocarboxylate 16b (0.51), and intermediate 17 (0.67)."}},
  "data": [
    {"smiles": "COC(=O)C(CCc1cn(Cc2cnc(C)nc2N)nn1)C(=O)OC", "note": "[13a]", "values": [
      {"measurement": "% Inhibition (5:1)", "setting": "[1]", "result": "71 ± 3", "unit": "%"},
      {"measurement": "inhibition at 250 µM", "setting": "[1]", "result": "36 ± 2", "unit": "%"},
      {"measurement": "vs TPP: affinity of the compound relative to that of TPP (= [TPP]/IC50)", "setting": "[1]", "result": 0.53},
      {"measurement": "IC50", "setting": "[1]", "result": "114 ± 15", "unit": "µM"},
      {"measurement": "Ki", "setting": "[1]", "result": 0.095, "unit": "µM"}
    ]},
    {"smiles": "COC(=O)C(CCCc1cn(Cc2cnc(C)nc2N)nn1)C(=O)OC", "note": "[13b]", "values": [
      {"measurement": "affinities, fold lower than those of 14b", "setting": "[2]", "result": "approximately 3 fold"},
      {"measurement": "outcome of esterase treatment", "setting": "[3]; 37 °C, pH 7.4, 2 h", "result": "the major product was monoester monocarboxylate 17"},
      {"measurement": "outcome of esterase treatment", "setting": "[3]; after 24 h", "result": "the only product seen was dicarboxylate 14b"},
      {"measurement": "% Inhibition (5:1)", "setting": "[1]", "result": "81 ± 4", "unit": "%"},
      {"measurement": "inhibition at 250 µM", "setting": "[1]", "result": "48 ± 3", "unit": "%"},
      {"measurement": "vs TPP: affinity of the compound relative to that of TPP (= [TPP]/IC50)", "setting": "[1]", "result": 0.88},
      {"measurement": "IC50", "setting": "[1]", "result": "68 ± 9", "unit": "µM"},
      {"measurement": "Ki", "setting": "[1]", "result": 0.057, "unit": "µM"}
    ]},
    {"smiles": "Cc1ncc(Cn2cc(CCC(C(=O)[O-])C(=O)[O-])nn2)c(N)n1.[K+].[K+]", "note": "[14a]", "values": [
      {"measurement": "% Inhibition (5:1)", "setting": "[1]", "result": "> 90", "unit": "%"},
      {"measurement": "inhibition at 250 µM", "setting": "[1]", "result": "62 ± 3", "unit": "%"},
      {"measurement": "vs TPP: affinity of the compound relative to that of TPP (= [TPP]/IC50)", "setting": "[1]", "result": 1.62},
      {"measurement": "IC50", "setting": "[1]", "result": "37 ± 6", "unit": "µM"},
      {"measurement": "Ki", "setting": "[1]", "result": 0.031, "unit": "µM"}
    ]},
    {"smiles": "Cc1ncc(Cn2cc(CCCC(C(=O)[O-])C(=O)[O-])nn2)c(N)n1.[K+].[K+]", "note": "[14b]", "values": [
      {"measurement": "% Inhibition (5:1)", "setting": "[1]", "result": "> 90", "unit": "%"},
      {"measurement": "inhibition at 250 µM", "setting": "[1]", "result": "72 ± 3", "unit": "%"},
      {"measurement": "vs TPP: affinity of the compound relative to that of TPP (= [TPP]/IC50)", "setting": "[1]", "result": 2.4},
      {"measurement": "IC50", "setting": "[1]", "result": "25 ± 6", "unit": "µM"},
      {"measurement": "Ki", "setting": "[1]", "result": 0.021, "unit": "µM"}
    ]},
    {"smiles": "COC(=O)CCCc1cn(Cc2cnc(C)nc2N)nn1", "note": "[15a]", "values": [
      {"measurement": "% Inhibition (5:1)", "setting": "[1]", "result": "65 ± 4", "unit": "%"},
      {"measurement": "inhibition at 250 µM", "setting": "[1]", "result": "25 ± 4", "unit": "%"},
      {"measurement": "vs TPP: affinity of the compound relative to that of TPP (= [TPP]/IC50)", "setting": "[1]", "result": 0.36},
      {"measurement": "IC50", "setting": "[1]", "result": "167 ± 35", "unit": "µM"},
      {"measurement": "Ki", "setting": "[1]", "result": 0.14, "unit": "µM"}
    ]},
    {"smiles": "COC(=O)CCCCc1cn(Cc2cnc(C)nc2N)nn1", "note": "[15b]", "values": [
      {"measurement": "outcome of esterase treatment", "setting": "[3]; 37 °C, pH 7.4, 2 h", "result": "completely hydrolyzed into monocarboxylate 16b"},
      {"measurement": "% Inhibition (5:1)", "setting": "[1]", "result": "71 ± 4", "unit": "%"},
      {"measurement": "inhibition at 250 µM", "setting": "[1]", "result": "31 ± 3", "unit": "%"},
      {"measurement": "vs TPP: affinity of the compound relative to that of TPP (= [TPP]/IC50)", "setting": "[1]", "result": 0.48},
      {"measurement": "IC50", "setting": "[1]", "result": "126 ± 28", "unit": "µM"},
      {"measurement": "Ki", "setting": "[1]", "result": 0.11, "unit": "µM"}
    ]},
    {"smiles": "Cc1ncc(Cn2cc(CCCC(=O)[O-])nn2)c(N)n1.[K+]", "note": "[16a]", "values": [
      {"measurement": "% Inhibition (5:1)", "setting": "[1]", "result": "75 ± 4", "unit": "%"},
      {"measurement": "inhibition at 250 µM", "setting": "[1]", "result": "34 ± 3", "unit": "%"},
      {"measurement": "vs TPP: affinity of the compound relative to that of TPP (= [TPP]/IC50)", "setting": "[1]", "result": 0.54},
      {"measurement": "IC50", "setting": "[1]", "result": "111 ± 18", "unit": "µM"},
      {"measurement": "Ki", "setting": "[1]", "result": 0.093, "unit": "µM"}
    ]},
    {"smiles": "Cc1ncc(Cn2cc(CCCCC(=O)[O-])nn2)c(N)n1.[K+]", "note": "[16b]", "values": [
      {"measurement": "affinities, fold lower than those of 14b", "setting": "[2]", "result": "approximately 3 fold"},
      {"measurement": "% Inhibition (5:1)", "setting": "[1]", "result": "77 ± 3", "unit": "%"},
      {"measurement": "inhibition at 250 µM", "setting": "[1]", "result": "40 ± 3", "unit": "%"},
      {"measurement": "vs TPP: affinity of the compound relative to that of TPP (= [TPP]/IC50)", "setting": "[1]", "result": 0.65},
      {"measurement": "IC50", "setting": "[1]", "result": "92 ± 13", "unit": "µM"},
      {"measurement": "Ki", "setting": "[1]", "result": 0.077, "unit": "µM"}
    ]}
  ]
}
